What was measured:
[1] = tested on: antioxidant response element (ARE); assay: ARE luciferase reporter gene activity in HepG2 cells; format: cell-based, human; conditions: 50 μM, HepG2 stably transfected (FIG. 4)
Procedure: (§1) NF-κB was the most important inflammatory signal pathway. SW480 human colon cancer cells stably transfected with a luciferase reporter gene driven by NF-κB were used to determine the effects of the compound of the present application and the control drug gemfibrozil on NF-κB transcriptional activity, which comprised the following steps. • (1) Cells stably transfected with NF-κB Luc were cultivated to exponential growth, inoculated at a culture medium concentration of 1×10^5/[…] in a 24-well plate, and cultured for 24 hours, the medium was discarded, and the test compound or gemfibrozil formulated with serum-free medium at 50 μM were added to the 24-well plate and incubation was continued for 6 hours. After washing once with 200 μL of PBS, 100 μL of reporter gene cell lysis buffer was added, the cells were lysed on ice for 10 minutes, and the cell lysate was collected by pipetting. • (2) After centrifugation was performed at 8000 rpm and 4° C. for 10 min, the supernatant was pipetted for fluorescence assay. • (3) The measurement gap time of chemiluminescence analyzer was set to 2 s and the measurement time was set to 10 s. Automatic sample injection was adopted, 50 μL of luciferase assay reagent was added to each well. The reporter gene cell lysis buffer was used as a blank control. • (4) After centrifugation, the supernatant was taken, and the BCA method was used to determine the protein concentration so as to normalize the reporter gene results.
In this experimental example, the luciferase activity in HepG2 human liver cancer cells stably transfected with a luciferase reporter gene driven by antioxidant response element (ARE) was determined to evaluate the regulatory effects of the compound of the present application and gemfibrozil on the transcriptional activity of transcription factor Nrf2 and the cellular oxidative stress response signals, in which the operation process of the reporter gene assay was the same as that of Experimental Example 2.2.

[2] = tested on: diabetes mellitus+NASH model mice; assay: Diabetes mellitus + non-alcoholic steatohepatitis (NASH) model; format: in vivo, mouse; conditions: for AHDL (high density lipoprotein) / ALDL (low density lipoprotein) / ALT / AST / BUN / CHOL (total cholesterol) / CK / CREA / TGL (triglycerides) / activity of lowering triglycerides (in words) / total cholesterol content in blood (in words): 50 mg/kg intragastric once a day for 28 days; for blood glucose level: 50 mg/kg intragastric once a day for 28 days (FIG. 9); for body fat content (MRI): 50 mg/kg intragastric once a day for 28 days (FIG. 10); for fat content in liver (Oil red O and H.E. staining): 50 mg/kg intragastric once a day for 28 days (FIGS. 12A-12B); for blood glucose level 14 days after the administration: 50 mg/kg intragastric once a day, day 14; for weight ratio of epididymal white fat: 50 mg/kg intragastric once a day for 28 days (FIG. 11)
Procedure: Animal model: Each db/db mouse was injected subcutaneously with 40% CCl4 solution (Beijing Tongguang Fine Chemical Co., Ltd.) at a dose of 0.72 mg/100 g for 4 consecutive weeks to obtain a diabetes mellitus+NASH model. In the experiment, 35 of the above model mice were used, and animals with blood glucose of about 7 to 13 mmol/L were selected. According to their blood glucose levels, they were randomly divided into a blank control group, a model group, a BJMU group (gemfibrozil), a BJMU-1 group, a BJMU-2 Group and a BJMU-3 group, 7 animals in each group (the model group and each administration group were modeled according to the animal modeling method). Intragastric administration was adopted with an administration volume of 10 ml/kg. The blank control group and the model group were administrated with 1% Tween 80-saline; the BJMU group was administrated with a dose of 50 mg/kg, the BJMU-1 group was administrated with a dose of 50 mg/kg, the BJMU-2 group was administrated with a dose of 50 mg/kg, and the BJMU-3 group was administrated with a dose of 50 mg/kg. The administration was performed once a day for 28 consecutive days. From the day of oral administration, the physiological changes of the animals were observed every day. Blood glucose was measured every week, and blood glucose difference (Δ) was calculated by the following formula: blood glucose difference (Δ)=the blood glucose of the day—the initial blood glucose (the initial blood glucose difference was zero). After the administration, the animals were sacrificed, and the internal organs and epididymal fat were taken out for experiments. White epididymal fat was taken from each group of mice and weighed. According to the corresponding body weight, the weight ratio of white fat was calculated. Before the mice were sacrificed, 3 mice in each group were randomly selected and subjected to magnetic resonance imaging (MRI) (EchoMRI-700 body fat tester) so as to measure body fat content. For mice in each experimental group, blood was collected and serum was separated, and liver was taken for wet-weight measurement after necropsy; liver tissue was taken and fixed for pathological examination, H.E. staining and oil red O staining (Wuhan Zishan Biotechnology Co., Ltd.) were performed, and mouse liver lesions were observed under light microscope; routine examination of blood was performed by Animal Laboratory Department, Health Science Center of Peking University to measure the following indexes: white blood cell count (WBC), red blood cell count (RBC), lymphocyte count (LY), platelet (PLT) and so on; biochemical laboratory examination of blood was performed by Laboratory Medicine, Third Hospital, Peking University to measure the following indexes: triglycerides (TG), total cholesterol (T-CHO), high-density lipoprotein cholesterol (HDL-C), low-density lipoprotein cholesterol (LDL-C) and so on.

[3] = tested on: NF-κB; assay: NF-κB luciferase reporter gene transcriptional activity in SW480 cells; format: cell-based, human; conditions: 50 μM, 6 hours, SW480 stably transfected (FIG. 3)
Procedure: as §1

[4] = tested on: RAW264.7 mouse macrophages; assay: Determination of NO generation induced by LPS; format: cell-based; conditions: 10 μM, 1 μg/mL LPS, 24 hours, RAW264.7 (FIG. 2)
Procedure: The results are expressed as the multiple of the NO content in the cell culture supernatant of the administration group (10 μM) as compared with that in the cell culture supernatant of the control group (DMSO group), in which compared with the control group, *P<0.05, **P<0.01, ***P<0.001.
NO is a reactive nitrogen species (RNS) and an important gas signal molecule. Macrophages could convert arginine into NO which participated in the body's inflammatory response. Therefore, determination of inhibitory activity of a drug on NO generation was one of the classic methods to evaluate drug's anti-inflammatory ability. RAW264.7 cells at exponential growth phase were inoculated into a 96-well plate at 1×10^4 cells/200 μL. well of medium. After adherence, the medium was discarded, and the cells were subjected to drug treatments. Normal group (serum-free medium), LPS model group (serum-free medium containing 1 μg/mL LPS), LPS+drug group (serum-free medium containing 1 μg/mL LPS, 10 μM gemfibrozil or the compound of the present application) were established, and 3 repeated wells were set for each group. After 24 hours incubation in incubator, cell supernatant of each well was collected and assay was performed according to the instructions of NO determination kit (Nanjing Jiancheng). The absorbance value of each well at wavelength of 540 nm was read and NO content was calculated.

BUN [2] [mmol/L]	CK [2] [U/L]	CREA [2] [µmol/L]	SMILES	ARE reporter gene activity [1]	AHDL (high density lipoprotein) [2] [mmol/L]	ALDL (low density lipoprotein) [2] [mmol/L]	ALT [2] [U/L]	AST [2] [U/L]	CHOL (total cholesterol) [2] [mmol/L]	TGL (triglycerides) [2] [mmol/L]	activity of lowering triglycerides (in words) [2]	blood glucose level [2]	body fat content (MRI) [2]	fat content in liver (Oil red O and H.E. staining) [2]	blood glucose level 14 days after the administration [2]	activity of NF-κB reporter gene [3]	NO generation induced by LPS [4]	total cholesterol content in blood (in words) [2]	weight ratio of epididymal white fat [2]
9.89 ± 1.31	1297.71 ± 814.48	19 ± 1.63	Cc1cc(OCCCC(C)(C)C(=O)O)c(C)cc1Cl [BJMU-1, 5-(4-chloro-2,5-dimethylphenoxy)-2,2-dimethylpentanoic acid]	could significantly activate the ARE reporter gene activity	2.34 ± 0.24	0.49 ± 0.06	114.86 ± 51.2	216.43 ± 60.6	4.85 ± 0.7	1.77 ± 0.65	had better activity of lowering triglycerides than gemfibrozil	could significantly reduce the blood glucose level	could significantly reduce the body fat content	could significantly reduce the fat content in liver	almost returned to the normal level	could significantly inhibit the activity of NF-κB reporter gene	could inhibit NO generation		
11.95 ± 1.81	1406.33 ± 458.77	22.5 ± 7.12	Cc1cc(OCCCC(C)(C)C(=O)O)c(C)cc1Br [BJMU-2, 5-(4-bromo-2,5-dimethylphenoxy)-2,2-dimethylpentanoic acid]	could significantly activate the ARE reporter gene activity	2.15 ± 0.29	0.48 ± 0.05	115.57 ± 39.12	233.67 ± 47.75	3.78 ± 0.45	1.73 ± 0.41	had better activity of lowering triglycerides than gemfibrozil	could significantly reduce the blood glucose level	could significantly reduce the body fat content	could significantly reduce the fat content in liver	almost returned to the normal level	could significantly inhibit the activity of NF-κB reporter gene	could inhibit NO generation	could reduce total cholesterol content in blood	could significantly reduce the weight ratio of mouse epididymal fat
9.29 ± 3.44	1674.71 ± 864.05	21.33 ± 10.52	Cc1cc(OCCCC(C)(C)C(=O)O)c(C)cc1F [BJMU-3, 5-(4-fluoro-2,5-dimethylphenoxy)-2,2-dimethylpentanoic acid]	could significantly activate the ARE reporter gene activity	2.27 ± 0.84	0.52 ± 0.14	125.14 ± 51.99	257 ± 83	4.42 ± 1.77	1.86 ± 0.99	had better activity of lowering triglycerides than gemfibrozil	could significantly reduce the blood glucose level	could significantly reduce the body fat content	could significantly reduce the fat content in liver	almost returned to the normal level		could inhibit NO generation		could significantly reduce the weight ratio of mouse epididymal fat
11.96 ± 2.26	1222.14 ± 392.96	22.29 ± 3.45	Cc1ccc(C)c(OCCCC(C)(C)C(=O)O)c1 [gemfibrozil, Gemfibrozil, reference compound]	did not obviously activate the ARE	2.68 ± 0.31	0.7 ± 0.16	134.14 ± 38.71	235.14 ± 41.06	5.37 ± 0.88	1.86 ± 0.66		did not exhibit significant hypoglycemic activity	did not show an activity of reducing body fat	did not exhibit the aforementioned activity		could not inhibit the activity of NF-κB reporter gene	did not have an activity of inhibiting NO generation	did not show an activity of lowering total cholesterol in blood	
